Data from patent US20240109865A1, “INDAZOLE COMPOUNDS AS KINASE INHIBITORS” (TYRA BIOSCIENCES, INC., priority 2020, published 2024).

Columns and labels:
[1] = target: FGFR3-BAIAP2L1 Ba/F3 cells (Homo sapiens, UniProt P22607); assay: Ba/F3 cell viability assay (CellTiter-Glo 2.0), FGFR3-BAIAP2L1 Ba/F3; format: cell-based; conditions: for Ba/F3 FGFR1/FGFR3 Selectivity: FGFR3 > FGFR1 selectivity ratio in Ba/F3 FGFR fusion cell based assays; for IC50: read-out: Ba/F3 Cells FGFR3 (IC50 nM), FGFR3-BAIAP2L1 Ba/F3 cells, 48 hours, Cell Titer Glo 2.0
Excerpt: (§1) Experimental Purpose: Recombinant kinase fusions are transduced into parental Ba/F3, which becomes dependent upon this constitutive kinase activity for IL3-independent survival. Inhibition of kinase activity leads to cell death, which is monitored using CellTiter-Glo® 2.0 (Promega) which measures intracellular ATP concentration that in turn serves as a marker for viability. FGFR1-BCR Ba/F3 and FGFR3-BAIAP2L1 Ba/F3 were obtained from Advanced Cellular Dynamics (Seattle, WA)
(§2) Cell Viability Assay Procedure: Cell Titer-Glo® 2.0 Luminescent cell viability assay reagent was purchased from Promega (Madison, WI). FGFR1-BCR Ba/F3 and FGFR3-BAIAP2L1 Ba/F3 cells were cultured in RPMI1640 media supplemented with 10% fetal bovine serum. Cultures were maintained at 37° C. in a humidified atmosphere of 5% C02 and 95% air.
(§3) Cells were plated in 96-well clear bottom/white plates (Corning #3903) at 10,000 cells/well in 100 μl of media, incubated overnight. The next day, test compound DMSO stock solutions were made at 10 mM and 2 μM final concentration. Compounds were then added to cells in a 9-dose, 10-fold dilution series starting at 30 μM with an HP 300e Digital Dispenser (each dose was applied in triplicate). DMSO was backfilled to each well up to 301 nL total volume of test compound+DMSO, and a total of 301 nL DMSO was added to a control/no test compound well in triplicate. The cells in cell culture plates were incubated with the compounds at 37° C. and 5% C02 for 48 hours. Then 50 μl of Cell Titer Glo 2.0 reagent was added to each well of the cell culture plates. The contents were covered from light and mixed on an orbital shaker at room temperature for 10 min. Luminescence was recorded by a Synergy H1 Microplate Reader (Biotek, Winooski, VT). Cells were assessed as a percentage of DMSO only treated control cells. Curves were plotted and IC50 values were calculated using the GraphPad Prism 8 program based on a sigmoidal dose-response equation (4 parameter).

FGFR1-BCR Ba/F3 cells = FGFR1-BCR Ba/F3 cells (Homo sapiens, UniProt P11362); assay: Ba/F3 cell viability assay (CellTiter-Glo 2.0), FGFR1-BCR Ba/F3; format: cell-based; conditions: read-out: Ba/F3 Cells FGFR1 (IC50 nM), 48 hours, Cell Titer Glo 2.0
Excerpt: as §1, §2, §3

FGFR1 = FGFR1 (Homo sapiens (Human), UniProt P11362); assay: Kinase assay, binding constants (Kd), kinase-tagged T7 phage, qPCR
Procedure, shortened: (§4)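 Using T7 phage lysates from BL21-derived E. coli, compounds at 0.9% final DMSO competed for kinase binding to ligand-bearing magnetic beads. After elution, qPCR measured remaining kinase, and Kds were fitted by non-linear least squares with the Hill slope fixed at −1.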

FGFR2 = FGFR2 (Homo sapiens (Human), UniProt P21802); assay: as above
Procedure, shortened: as §4

FGFR3 = FGFR3 (Homo sapiens (Human), UniProt P22607); assay: as above
Procedure, shortened: as §4

FGFR3 (V555M) = FGFR3 (V555M) (Homo sapiens (Human), UniProt P22607, V555M); assay: as above; conditions: V555M mutant
Procedure, shortened: as §4

FGFR4 = FGFR4 (Homo sapiens (Human), UniProt P22455); assay: as above
Procedure, shortened: as §4

FGFR2, sequence (P21802 22-821): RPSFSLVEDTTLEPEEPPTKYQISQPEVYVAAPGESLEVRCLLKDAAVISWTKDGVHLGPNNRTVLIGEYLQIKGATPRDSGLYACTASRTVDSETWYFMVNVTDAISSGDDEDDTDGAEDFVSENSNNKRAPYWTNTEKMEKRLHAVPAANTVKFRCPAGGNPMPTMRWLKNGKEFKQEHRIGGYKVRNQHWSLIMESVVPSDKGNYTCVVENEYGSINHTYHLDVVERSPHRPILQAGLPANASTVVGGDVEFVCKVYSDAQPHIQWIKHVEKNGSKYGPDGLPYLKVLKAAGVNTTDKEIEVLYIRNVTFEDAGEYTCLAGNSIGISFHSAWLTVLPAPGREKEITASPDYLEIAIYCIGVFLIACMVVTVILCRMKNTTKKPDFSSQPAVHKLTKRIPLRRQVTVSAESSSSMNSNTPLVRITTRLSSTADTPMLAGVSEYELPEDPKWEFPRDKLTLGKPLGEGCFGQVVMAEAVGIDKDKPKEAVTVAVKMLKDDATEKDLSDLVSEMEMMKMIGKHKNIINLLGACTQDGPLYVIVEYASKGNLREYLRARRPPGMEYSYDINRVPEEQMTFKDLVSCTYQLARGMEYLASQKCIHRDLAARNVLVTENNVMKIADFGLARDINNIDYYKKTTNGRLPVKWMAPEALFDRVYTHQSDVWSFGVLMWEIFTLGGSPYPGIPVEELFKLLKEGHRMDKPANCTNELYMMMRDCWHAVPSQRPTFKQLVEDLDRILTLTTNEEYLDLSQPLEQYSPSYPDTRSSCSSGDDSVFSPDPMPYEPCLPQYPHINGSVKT
FGFR3-BAIAP2L1 Ba/F3 cells, sequence (P22607 23-806 limits assumed, change not shown): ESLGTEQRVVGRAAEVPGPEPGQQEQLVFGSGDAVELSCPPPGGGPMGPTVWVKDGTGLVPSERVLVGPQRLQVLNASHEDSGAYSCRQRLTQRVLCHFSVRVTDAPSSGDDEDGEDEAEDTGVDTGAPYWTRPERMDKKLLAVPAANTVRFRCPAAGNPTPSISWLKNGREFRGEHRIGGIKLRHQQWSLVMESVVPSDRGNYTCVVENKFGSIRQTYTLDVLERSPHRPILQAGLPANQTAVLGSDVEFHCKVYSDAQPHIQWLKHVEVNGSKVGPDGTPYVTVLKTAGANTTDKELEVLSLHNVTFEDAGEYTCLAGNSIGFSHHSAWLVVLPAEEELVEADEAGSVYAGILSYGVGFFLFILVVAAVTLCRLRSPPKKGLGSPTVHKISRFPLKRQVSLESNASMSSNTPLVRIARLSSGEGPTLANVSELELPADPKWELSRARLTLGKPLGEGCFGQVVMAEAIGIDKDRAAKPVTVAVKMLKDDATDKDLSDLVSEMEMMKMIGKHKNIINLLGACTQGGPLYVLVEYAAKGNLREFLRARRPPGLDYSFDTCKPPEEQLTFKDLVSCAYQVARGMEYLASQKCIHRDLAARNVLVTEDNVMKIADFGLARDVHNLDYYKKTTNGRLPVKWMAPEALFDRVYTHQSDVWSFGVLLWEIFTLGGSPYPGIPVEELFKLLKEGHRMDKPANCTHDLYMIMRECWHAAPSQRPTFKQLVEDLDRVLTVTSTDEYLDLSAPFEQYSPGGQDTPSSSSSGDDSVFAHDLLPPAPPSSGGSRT
FGFR3, sequence (P22607 23-806): as the sequence (P22607 23-806 limits assumed, change not shown) above
FGFR3 (V555M), sequence (P22607 23-806 V555M): as the sequence (P22607 23-806 limits assumed, change not shown) above, with V533M counted along it
FGFR1-BCR Ba/F3 cells, sequence (P11362 22-822 limits assumed, change not shown): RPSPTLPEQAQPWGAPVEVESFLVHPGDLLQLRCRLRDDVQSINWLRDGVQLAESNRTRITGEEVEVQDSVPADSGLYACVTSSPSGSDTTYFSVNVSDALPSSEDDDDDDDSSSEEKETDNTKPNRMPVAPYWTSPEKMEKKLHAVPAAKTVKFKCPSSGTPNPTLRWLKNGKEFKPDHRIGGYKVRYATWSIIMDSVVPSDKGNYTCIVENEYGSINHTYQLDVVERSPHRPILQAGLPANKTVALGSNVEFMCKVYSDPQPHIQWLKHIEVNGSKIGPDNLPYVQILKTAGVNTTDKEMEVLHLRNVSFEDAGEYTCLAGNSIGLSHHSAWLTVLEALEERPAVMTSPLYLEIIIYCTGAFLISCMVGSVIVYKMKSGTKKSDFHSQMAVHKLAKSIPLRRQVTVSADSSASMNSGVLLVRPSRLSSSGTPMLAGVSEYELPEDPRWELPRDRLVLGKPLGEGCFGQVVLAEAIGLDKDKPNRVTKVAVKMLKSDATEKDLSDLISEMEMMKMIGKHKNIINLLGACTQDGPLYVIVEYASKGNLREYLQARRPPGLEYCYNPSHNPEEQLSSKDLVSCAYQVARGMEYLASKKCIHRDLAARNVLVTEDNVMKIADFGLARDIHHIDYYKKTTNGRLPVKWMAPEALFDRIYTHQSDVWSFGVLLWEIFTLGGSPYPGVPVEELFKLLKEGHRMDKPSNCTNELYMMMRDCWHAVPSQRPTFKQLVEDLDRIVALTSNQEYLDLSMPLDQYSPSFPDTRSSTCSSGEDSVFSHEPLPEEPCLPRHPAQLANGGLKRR
FGFR1, sequence (P11362 22-822): as the sequence (P11362 22-822 limits assumed, change not shown) above
FGFR4, sequence (P22455 22-802): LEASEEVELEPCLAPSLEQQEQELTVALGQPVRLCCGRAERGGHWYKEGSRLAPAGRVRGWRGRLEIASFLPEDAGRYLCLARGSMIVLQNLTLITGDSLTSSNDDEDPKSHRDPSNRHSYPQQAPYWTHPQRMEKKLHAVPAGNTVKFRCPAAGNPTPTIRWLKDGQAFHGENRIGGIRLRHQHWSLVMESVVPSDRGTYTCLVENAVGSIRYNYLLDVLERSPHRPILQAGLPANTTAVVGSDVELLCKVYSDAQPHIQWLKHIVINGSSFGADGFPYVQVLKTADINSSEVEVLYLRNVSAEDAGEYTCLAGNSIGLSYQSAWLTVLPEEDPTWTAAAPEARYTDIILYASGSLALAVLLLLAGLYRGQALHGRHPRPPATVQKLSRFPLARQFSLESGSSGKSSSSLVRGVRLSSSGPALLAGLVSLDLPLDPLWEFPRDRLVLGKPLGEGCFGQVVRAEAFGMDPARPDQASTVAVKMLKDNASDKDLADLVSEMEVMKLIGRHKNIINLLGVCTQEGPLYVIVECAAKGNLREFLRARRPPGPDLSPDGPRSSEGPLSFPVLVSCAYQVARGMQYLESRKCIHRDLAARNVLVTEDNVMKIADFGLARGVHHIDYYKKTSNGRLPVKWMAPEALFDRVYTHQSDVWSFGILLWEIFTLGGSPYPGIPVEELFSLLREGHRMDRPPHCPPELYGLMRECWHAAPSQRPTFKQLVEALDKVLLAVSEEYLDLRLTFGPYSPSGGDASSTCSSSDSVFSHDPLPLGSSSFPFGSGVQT

| SMILES | Ba/F3 FGFR1/FGFR3 Selectivity [1] | IC50 [1] | IC50 (FGFR1-BCR Ba/F3 cells) | Kd (FGFR1) | Kd (FGFR2) | Kd (FGFR3) | Kd (FGFR3 (V555M)) | Kd (FGFR4) |
| --- | --- | --- | --- | --- | --- | --- | --- | --- |
| Cc1cnnc(C)c1[C@@H](C)Oc1ccc2[nH]nc(-c3cnc(N4CC5(CCS(=O)(=O)C5)C4)nc3)c2c1 [Example 141, 2-[5-[5-[(1R)-1-(3,5-dimethylpyridazin-4-yl)ethoxy]-1H-indazol-3-yl]pyrimidin-2-yl]-6λ^6-thia-2-azaspiro[3.4]octane 6,6-dioxide] | 3 | > 300 nM | > 300 nM | 20 to 100 nM | 20 to 100 nM | 1 to 20 nM | 1 to 20 nM | 1 to 20 nM |
| C[C@@H](Oc1ccc2[nH]nc(-c3cnn(C4CCN(C(N)=O)CC4)c3)c2c1)c1c(Cl)cncc1Cl [Example 68, 4-[4-[5-[(1R)-1-(3,5-dichloro-4-pyridyl)ethoxy]-1H-indazol-3-yl]pyrazol-1-yl]piperidine-1-carboxamide] | – | 1 to 20 nM | 100 to 300 nM | 1 to 20 nM | 1 to 20 nM | 1 to 20 nM | 1 to 20 nM | 1 to 20 nM |
| CCOC(=O)N1CC2(C1)CN(c1ncc(-c3n[nH]c4ccc(O[C@H](C)c5c(C)cnnc5C)cc34)cn1)C2 [Example 146, ethyl 6-[5-[5-[(1R)-1-(3,5-dimethylpyridazin-4-yl)ethoxy]-1H-indazol-3-yl]pyrimidin-2-yl]-2,6-diazaspiro[3.3]heptane-2-carboxylate] | 15 | 100 to 300 nM | > 300 nM | 100 to 300 nM | 20 to 100 nM | 1 to 20 nM | 1 to 20 nM | 1 to 20 nM |
| Cc1ncc(Cl)c([C@@H](C)Oc2ccc3[nH]nc(-c4cnn(C5CCN(C)CC5)c4)c3c2)c1Cl [Example 80, 5-[(1R)-1-(3,5-dichloro-2-methyl-4-pyridyl)ethoxy]-3-[1-(1-methyl-4-piperidyl)pyrazol-4-yl]-1H-indazole] | 17 | 1 to 20 nM | 100 to 300 nM | 1 to 20 nM | 1 to 20 nM | 1 to 20 nM | 1 to 20 nM | 100 to 300 nM |
| C[C@@H](Oc1ccc2[nH]nc(-c3cnn(C4CCN(CCO)CC4)c3)c2c1)c1c(Cl)cncc1Cl [Example 79, 2-[4-[4-[5-[(1R)-1-(3,5-dichloro-4-pyridyl)ethoxy]-1H-indazol-3-yl]pyrazol-1-yl]-1-piperidyl]ethanol] | 14 | 1 to 20 nM | 20 to 100 nM | 1 to 20 nM | 1 to 20 nM | 1 to 20 nM | 1 to 20 nM | 1 to 20 nM |
| CCOC(=O)N1CCC2(CC1)CN(c1ccc(-c3n[nH]c4ccc(O[C@H](C)c5c(Cl)cncc5Cl)cc34)cn1)C2 [Example 130, ethyl 2-[5-[5-[(1R)-1-(3,5-dichloro-4-pyridyl)ethoxy]-1H-indazol-3-yl]-2-pyridyl]-2,7-diazaspiro[3.5]nonane-7-carboxylate] | 12 | 20 to 100 nM | > 300 nM | 20 to 100 nM | 20 to 100 nM | 1 to 20 nM | 1 to 20 nM | 1 to 20 nM |
| C[C@@H](Oc1ccc2[nH]nc(-c3ccc(N4CCC5(CC4)CCS(=O)(=O)C5)nc3)c2c1)c1c(Cl)cncc1Cl [Example 78, 8-[5-[5-[(1R)-1-(3,5-dichloro-4-pyridyl)ethoxy]-1H-indazol-3-yl]-2-pyridyl]-2λ^6-thia-8-azaspiro[4.5]decane 2,2-dioxide] | 13 | 1 to 20 nM | 20 to 100 nM | 1 to 20 nM | 1 to 20 nM | 1 to 20 nM | 1 to 20 nM | 1 to 20 nM |
| COC(=O)N1CCCC2(C1)CN(c1ncc(-c3n[nH]c4ccc(O[C@H](C)c5c(Cl)cncc5Cl)cc34)cn1)C2 [Example 138, methyl 2-[5-[5-[(1R)-1-(3,5-dichloro-4-pyridyl)ethoxy]-1H-indazol-3-yl]pyrimidin-2-yl]-2,8-diazaspiro[3.5]nonane-8-carboxylate] | 8 | 20 to 100 nM | > 300 nM | 20 to 100 nM | 20 to 100 nM | 1 to 20 nM | 1 to 20 nM | 1 to 20 nM |
| C[C@@H](Oc1ccc2[nH]nc(-c3cnn(C4CCN(C(=O)CCN(C)C)CC4)c3)c2c1)c1c(Cl)cncc1Cl [Example 82, 1-[4-[4-[5-[(1R)-1-(3,5-dichloro-4-pyridyl)ethoxy]-1H-indazol-3-yl]pyrazol-1-yl]-1-piperidyl]-3-(dimethylamino)propan-1-one] | 11 | 1 to 20 nM | 100 to 300 nM | 1 to 20 nM | 1 to 20 nM | 1 to 20 nM | 1 to 20 nM | 20 to 100 nM |
| C[C@@H](Oc1ccc2[nH]nc(-c3ccc(N4CC5(CCNCC5)OC4=O)nc3)c2c1)c1c(Cl)cncc1Cl [Example 74, 3-[5-[5-[(1R)-1-(3,5-dichloro-4-pyridyl)ethoxy]-1H-indazol-3-yl]-2-pyridyl]-1-oxa-3,8-diazaspiro[4.5]decan-2-one] | 6 | 20 to 100 nM | 100 to 300 nM | 1 to 20 nM | 1 to 20 nM | 1 to 20 nM | 1 to 20 nM | 1 to 20 nM |
| Cc1ncc(Cl)c([C@@H](C)Oc2ccc3[nH]nc(-c4cnn(C5CCNCC5)c4)c3c2)c1Cl [Example 92, 5-[(1R)-1-(3,5-dichloro-2-methyl-4-pyridyl)ethoxy]-3-[1-(4-piperidyl)pyrazol-4-yl]-1H-indazole] | 18 | 20 to 100 nM | 100 to 300 nM | 1 to 20 nM | 1 to 20 nM | 1 to 20 nM | 1 to 20 nM | 20 to 100 nM |
| C[C@@H](Oc1ccc2[nH]nc(-c3cnc(N4CCC5(CC4)CCS(=O)(=O)C5)nc3)c2c1)c1c(Cl)cncc1Cl [Example 57, 8-[5-[5-[(1R)-1-(3,5-dichloro-4-pyridyl)ethoxy]-1H-indazol-3-yl]pyrimidin-2-yl]-2λ^6-thia-8-azaspiro[4.5]decane 2,2-dioxide] | 15 | 1 to 20 nM | 100 to 300 nM | 20 to 100 nM | 20 to 100 nM | 1 to 20 nM | 1 to 20 nM | 1 to 20 nM |
| C[C@@H](Oc1ccc2[nH]nc(-c3ccc(N4CCC5(CCC(=O)N5C)CC4)nc3)c2c1)c1c(Cl)cncc1Cl [Example 40, 8-[5-[5-[(1R)-1-(3,5-dichloro-4-pyridyl)ethoxy]-1H-indazol-3-yl]-2-pyridyl]-1-methyl-1,8-diazaspiro[4.5]decan-2-one] | 30 | 1 to 20 nM | 20 to 100 nM | 1 to 20 nM | 1 to 20 nM | 1 to 20 nM | 1 to 20 nM | 1 to 20 nM |
| C[C@@H](Oc1ccc2[nH]nc(-c3cnc(N4CCC5(CCCN5)CC4)nc3)c2c1)c1c(Cl)cncc1Cl [Example 56, 8-[5-[5-[(1R)-1-(3,5-dichloro-4-pyridyl)ethoxy]-1H-indazol-3-yl]pyrimidin-2-yl]-1,8-diazaspiro[4.5]decane] | 5 | 20 to 100 nM | > 300 nM | 1 to 20 nM | 20 to 100 nM | 1 to 20 nM | 1 to 20 nM | 1 to 20 nM |
| C[C@@H](Oc1ccc2[nH]nc(-c3cnn(C4CCNCC4)c3)c2c1)c1c(Cl)cncc1Cl [Example 64, 5-[(1R)-1-(3,5-dichloro-4-pyridyl)ethoxy]-3-[1-(4-piperidyl)pyrazol-4-yl]-1H-indazole] | 16 | 1 to 20 nM | 100 to 300 nM | 1 to 20 nM | 1 to 20 nM | 1 to 20 nM | 1 to 20 nM | 1 to 20 nM |
